The test deals with phrenic nerve/isolated diaphragm preparation. Particulars: 10^−3 M; contractions induced by indirect stimulation via the phrenic nerve (0.1 to 7 volts, 0.3 ms, 0.1 Hz); cumulative concentrations. On the procedure: Activity of manganese gluconate and of manganese chloride in a model of nerve/muscle junction (motor plate) obtained in a phrenic nerve/isolated diaphragm preparation: investigation of a myorelaxant effect:
The phrenic nerve and the diaphragm were carefully isolated and placed in a 50 ml tank filled with survival fluid (Krebs Henseleit liquid) maintained at a temperature of 37° C. and oxygenated with a mixture of 95% oxygen and 5% CO2.
The variations in the tension of the diaphragm were then recorded with an initial preloading of several grams.
After a relaxation period of 30 min., the diaphragm was stimulated indirectly via the phrenic nerve.
On each preparation, the effect of the test products was evaluated, in a first stage, on the contractions induced by indirect stimulation via stimulation of the phrenic nerve (0.1 to 7 volts, 0.3 ms, 0.1 Hz) at increasing and cumulative concentrations from 10^−6 M to 10^−3 M.

Consider manganese chloride [MnCl2], for which the “% of inhibition (indirect stimulation)” value was 10%.

Regarding manganese gluconate, the “% of inhibition (indirect stimulation)” value is given as 25%.

For the origin of these results see patent publication US20040096520A1, “Manganese compositions for reducing/preventing skin wrinkles and fine lines” (SOCIETE L'OREAL S.A., priority 2000, published 2004).
